Legend:
PDIA3 = target: T1, PDIA3 (Homo sapiens, UniProt P30101); experiment: insulin reduction turbidimetric assay with recombinant enzyme; type: biochemical; conditions: read-out: Enzymatic Activity, % of Initial / PDIA3
T1 construct: recombinant, 25-505aa, His-tag, E. coli
T1 sequence (P30101 25-505): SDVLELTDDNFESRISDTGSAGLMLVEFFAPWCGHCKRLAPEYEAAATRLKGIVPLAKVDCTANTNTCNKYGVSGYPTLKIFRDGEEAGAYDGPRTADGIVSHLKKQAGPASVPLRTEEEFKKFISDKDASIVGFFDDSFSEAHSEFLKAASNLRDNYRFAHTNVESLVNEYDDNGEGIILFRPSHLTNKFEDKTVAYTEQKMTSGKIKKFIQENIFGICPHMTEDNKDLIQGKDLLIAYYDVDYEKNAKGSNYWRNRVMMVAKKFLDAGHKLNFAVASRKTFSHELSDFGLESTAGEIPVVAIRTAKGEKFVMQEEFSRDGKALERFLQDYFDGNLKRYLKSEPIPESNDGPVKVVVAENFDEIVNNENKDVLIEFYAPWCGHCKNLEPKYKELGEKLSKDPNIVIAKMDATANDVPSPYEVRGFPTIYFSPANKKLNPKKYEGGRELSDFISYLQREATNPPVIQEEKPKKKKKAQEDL

[1] = target: T2, PDIA1 (protein disulphide isomerase A1) (Homo sapiens, UniProt P07237); experiment: as above; type: biochemical; conditions: read-out: Enzymatic Activity, % of Initial / PDIA1
T2 construct: gene P4HB; recombinant, full length, 18-508aa, His-tag, E. coli
T2 sequence (P07237 18-508): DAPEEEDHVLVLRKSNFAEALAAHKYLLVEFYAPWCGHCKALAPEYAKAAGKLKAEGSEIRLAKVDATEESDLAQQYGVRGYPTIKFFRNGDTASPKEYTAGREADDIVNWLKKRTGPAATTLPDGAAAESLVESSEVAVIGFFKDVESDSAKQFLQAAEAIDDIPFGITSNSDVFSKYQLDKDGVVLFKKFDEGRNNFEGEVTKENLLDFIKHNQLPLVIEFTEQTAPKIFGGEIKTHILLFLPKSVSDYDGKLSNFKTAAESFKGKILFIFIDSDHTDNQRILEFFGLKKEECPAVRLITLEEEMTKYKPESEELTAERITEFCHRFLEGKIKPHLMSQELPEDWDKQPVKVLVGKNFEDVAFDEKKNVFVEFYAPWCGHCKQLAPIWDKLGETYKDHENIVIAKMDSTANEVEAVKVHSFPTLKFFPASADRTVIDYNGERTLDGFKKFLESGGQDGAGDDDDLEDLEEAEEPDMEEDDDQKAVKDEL

IC50 (PDIA3): 127 µM
IC50 [1]: 2.1 µM
Substance: bepristat 2a

— publication PMC7601413, “Protein Disulphide Isomerase A1 Is Involved in the Regulation of Breast Cancer Cell Adhesion and Transmigration via Lung Microvascular Endothelial Cells” (Cancers, 2020)
